# ChEMBL document CHEMBL1150233, “Circumdatin G, a new alkaloid from the fungus Aspergillus ochraceus” (J Nat Prod, 2001)
# Assay: Inhibition of HCV protease
# Set-up: species or system Hepacivirus hominis
row,Structure (SMILES),IC50
1,CCCC(=O)c1cc2c(c(O)c1C)C(=O)C(=O)c1c(O)cccc1-2,7.7 µM
2,CC1Cc2cccc(O)c2C(=O)O1 (stereo not drawn) [MELLEIN],35 µM
3,O=C1C=C2C(=CCOC2O)O1 (stereo not drawn) [PATULIN],24.7 µM
